From BindingDB's records for doi:10.1016/j.bmcl.2016.04.067 (Peking University Health Science Center, 2016) come the findings set out here.

A word on the IC50: it is the point on the concentration scale where inhibition reaches its midpoint.

A short description of assay [1]: Inhibition of trypsin-like activity of 20S human proteasome assessed as Z-LRR-AMC hydrolysis at using Promega proteasome-Glo-3 substrate incubated for 15 mins by luminescence assay.
Assay [2] can be described thus: Inhibition of caspase-like activity of 20S human proteasome assessed as Z-nLPnLD-AMC hydrolysis at using Promega proteasome-Glo-3 substrate incubated for 15 mins by luminescence assay.

Turning to `O=c1c2ccccc2c(-c2ccc(OCCCC[P+](c3ccccc3)(c3ccccc3)c3ccccc3)cc2)nn1CC1CC1`, the figures for the IC50 in assay [1] and in assay [2] were 589 µM and 133 µM, respectively.
Consider `O=c1c2ccccc2c(-c2ccc(OCCCC[P+](c3ccccc3)(c3ccccc3)c3ccccc3)cc2)nn1-c1cccs1`, for which the results for the IC50 in assay [1] and in assay [2] were 558 µM and 70.5 µM, respectively.
For `O=c1c2ccccc2c(-c2ccc(OCCCC[P+](c3ccccc3)(c3ccccc3)c3ccccc3)cc2)nn1-c1ccccc1`, in that order: 220 µM and 103 µM.
On to `CC(C)Cn1nc(-c2ccc(OCCCC[P+](c3ccccc3)(c3ccccc3)c3ccccc3)cc2)c2ccccc2c1=O`, for which the figures for the concentration for half-maximal inhibition (IC50) in assay [1] and in assay [2] were 276 µM and 80.2 µM, respectively.
`O=c1c2ccccc2c(-c2ccc(OCCCC[P+](c3ccccc3)(c3ccccc3)c3ccccc3)cc2)nn1CC1CCCCC1`: the figures for the IC50 in assay [1] and in assay [2] were 643 µM and 50.4 µM, respectively.
The like results for `CNc1ccc(-n2nc(-c3ccc(OCCCC[P+](c4ccccc4)(c4ccccc4)c4ccccc4)cc3)c3ccccc3c2=O)cc1` were, in that order, 390 µM and 131 µM.
